What was measured:
Assay in all cases: radiometric filter-binding kinase assay, Kinase HotSpot
Settings in all cases: compound 0.5 µM; ATP 10 µM
[1] = target: CDK1 CCNA2 (human) (UniProt P06493+P20248)
[2] = target: PTK2 (human) (UniProt Q05397)
[3] = target: MAP2K1 (human) (UniProt Q02750)
[4] = target: NTRK1 (human) (UniProt P04629)
[5] = target: PIM2 (human) (UniProt Q9P1W9)
[6] = target: DAPK2 (human) (UniProt Q9UIK4)
[7] = target: TEK (human) (UniProt Q02763)
[8] = target: AXL (human) (UniProt P30530)
[9] = target: BLK (human) (UniProt P51451)
[10] = target: EPHA1 (human) (UniProt P21709)
[11] = target: DMPK (human) (UniProt Q09013)
[12] = target: DYRK2 (human) (UniProt Q92630)
[13] = target: NTRK3 (human) (UniProt Q16288)
[14] = target: KIT (human) (UniProt P10721)
[15] = target: CAMK4 (human) (UniProt Q16566)
[16] = target: JAK2 JH1 JH2 (human) (UniProt O60674)
[17] = target: AURKA (human) (UniProt O14965)
[18] = target: RPS6KA1 KD1 KD2 (human) (UniProt Q15418)
[19] = target: EPHA8 (human) (UniProt P29322)
[20] = target: FLT1 (human) (UniProt P17948)
[21] = target: YES1 (human) (UniProt P07947)
[22] = target: KDR (human) (UniProt P35968)
[23] = target: PRKCI (human) (UniProt P41743)
[24] = target: FGR (human) (UniProt P09769)
[25] = target: WNK3 (human) (UniProt Q9BYP7)
[26] = target: LIMK1 (human) (UniProt P53667)
[27] = target: MERTK (human) (UniProt Q12866)
[28] = target: STK4 (human) (UniProt Q13043)
[29] = target: GRK4 (human) (UniProt P32298)
[30] = target: FGFR1 (human) (UniProt P11362)
[31] = target: PAK4 (human) (UniProt O96013)
[32] = target: PRKCG (human) (UniProt P05129)
[33] = target: CHEK2 (human) (UniProt O96017)
[34] = target: CAMK2G (human) (UniProt Q13555)
[35] = target: PAK3 (human) (UniProt O75914)
[36] = target: MAPK9 (human) (UniProt P45984)
[37] = target: BRSK1 (human) (UniProt Q8TDC3)
[38] = target: EPHA2 (human) (UniProt P29317)
[39] = target: PLK3 (human) (UniProt Q9H4B4)
[40] = target: IKBKB (human) (UniProt O14920)
[41] = target: MATK (human) (UniProt P42679)
[42] = target: ABL2 (human) (UniProt P42684)

FGFR1 (human), sequence (P11362 whole entry, looked up): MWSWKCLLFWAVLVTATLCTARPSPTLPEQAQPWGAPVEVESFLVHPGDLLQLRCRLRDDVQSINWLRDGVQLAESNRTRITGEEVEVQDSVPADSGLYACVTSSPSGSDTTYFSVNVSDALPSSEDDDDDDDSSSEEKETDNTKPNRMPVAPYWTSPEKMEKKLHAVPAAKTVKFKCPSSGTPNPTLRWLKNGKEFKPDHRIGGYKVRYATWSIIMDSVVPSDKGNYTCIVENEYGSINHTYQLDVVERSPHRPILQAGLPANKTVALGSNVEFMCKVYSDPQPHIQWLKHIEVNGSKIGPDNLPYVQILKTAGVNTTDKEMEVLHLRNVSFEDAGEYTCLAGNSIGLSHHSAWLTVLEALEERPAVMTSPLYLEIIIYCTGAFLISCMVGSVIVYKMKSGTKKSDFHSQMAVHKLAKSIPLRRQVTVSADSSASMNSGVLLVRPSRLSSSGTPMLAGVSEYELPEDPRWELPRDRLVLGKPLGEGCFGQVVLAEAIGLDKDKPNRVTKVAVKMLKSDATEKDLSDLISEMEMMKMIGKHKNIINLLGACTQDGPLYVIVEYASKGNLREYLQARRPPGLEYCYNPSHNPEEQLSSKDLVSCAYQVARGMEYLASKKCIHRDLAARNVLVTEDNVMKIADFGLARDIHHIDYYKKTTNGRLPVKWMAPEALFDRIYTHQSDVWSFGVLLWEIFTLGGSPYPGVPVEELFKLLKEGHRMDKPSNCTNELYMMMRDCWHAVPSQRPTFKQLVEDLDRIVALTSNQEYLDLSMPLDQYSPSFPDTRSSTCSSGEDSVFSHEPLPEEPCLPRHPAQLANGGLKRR
PTK2 (human), sequence (Q05397 whole entry, looked up): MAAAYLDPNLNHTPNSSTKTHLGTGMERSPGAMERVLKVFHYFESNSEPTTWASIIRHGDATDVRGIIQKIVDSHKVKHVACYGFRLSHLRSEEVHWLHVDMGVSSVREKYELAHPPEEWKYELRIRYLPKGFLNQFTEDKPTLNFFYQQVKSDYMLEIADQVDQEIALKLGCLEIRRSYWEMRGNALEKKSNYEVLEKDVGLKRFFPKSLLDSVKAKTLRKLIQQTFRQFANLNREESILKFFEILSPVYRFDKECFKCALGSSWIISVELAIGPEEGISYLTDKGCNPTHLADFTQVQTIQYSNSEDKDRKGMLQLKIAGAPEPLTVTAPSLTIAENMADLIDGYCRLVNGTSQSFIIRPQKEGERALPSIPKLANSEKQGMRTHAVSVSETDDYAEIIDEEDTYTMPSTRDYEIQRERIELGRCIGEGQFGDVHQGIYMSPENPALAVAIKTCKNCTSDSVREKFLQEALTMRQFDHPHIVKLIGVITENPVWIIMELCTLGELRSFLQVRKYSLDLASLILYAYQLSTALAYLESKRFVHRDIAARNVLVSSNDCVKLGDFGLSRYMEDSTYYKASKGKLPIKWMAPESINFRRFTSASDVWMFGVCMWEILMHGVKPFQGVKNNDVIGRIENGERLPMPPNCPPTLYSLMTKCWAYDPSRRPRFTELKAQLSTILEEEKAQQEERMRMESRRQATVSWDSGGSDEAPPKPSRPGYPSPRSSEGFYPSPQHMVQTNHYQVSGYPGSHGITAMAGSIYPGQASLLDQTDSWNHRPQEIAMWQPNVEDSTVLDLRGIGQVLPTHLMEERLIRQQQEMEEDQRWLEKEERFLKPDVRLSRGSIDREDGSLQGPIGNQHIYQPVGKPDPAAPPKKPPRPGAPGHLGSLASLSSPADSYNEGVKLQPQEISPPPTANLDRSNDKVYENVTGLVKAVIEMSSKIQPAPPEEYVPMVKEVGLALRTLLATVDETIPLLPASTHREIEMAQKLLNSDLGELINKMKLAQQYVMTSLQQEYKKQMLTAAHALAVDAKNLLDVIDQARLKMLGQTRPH
NTRK3 (human), sequence (Q16288 whole entry, looked up): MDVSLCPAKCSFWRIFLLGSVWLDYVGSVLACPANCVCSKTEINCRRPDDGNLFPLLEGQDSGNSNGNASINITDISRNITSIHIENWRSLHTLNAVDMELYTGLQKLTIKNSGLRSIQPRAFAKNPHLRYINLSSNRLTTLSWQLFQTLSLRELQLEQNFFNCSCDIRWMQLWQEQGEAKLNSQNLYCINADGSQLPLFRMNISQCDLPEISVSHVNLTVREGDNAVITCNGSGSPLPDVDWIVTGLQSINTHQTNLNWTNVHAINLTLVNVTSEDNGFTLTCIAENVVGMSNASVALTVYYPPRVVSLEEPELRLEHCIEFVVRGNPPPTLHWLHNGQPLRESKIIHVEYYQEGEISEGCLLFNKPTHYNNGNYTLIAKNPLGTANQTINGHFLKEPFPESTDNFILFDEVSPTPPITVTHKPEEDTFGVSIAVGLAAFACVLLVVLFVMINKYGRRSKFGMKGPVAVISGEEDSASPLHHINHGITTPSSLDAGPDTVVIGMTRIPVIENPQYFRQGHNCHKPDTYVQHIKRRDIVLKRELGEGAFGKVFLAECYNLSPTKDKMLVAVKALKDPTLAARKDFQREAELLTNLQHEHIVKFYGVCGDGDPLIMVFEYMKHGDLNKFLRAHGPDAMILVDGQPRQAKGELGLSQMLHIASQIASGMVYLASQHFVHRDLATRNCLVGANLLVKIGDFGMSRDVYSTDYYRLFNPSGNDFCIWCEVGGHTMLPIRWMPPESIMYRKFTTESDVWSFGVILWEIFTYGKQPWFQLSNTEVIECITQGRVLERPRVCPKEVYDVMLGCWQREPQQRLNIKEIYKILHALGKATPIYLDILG
AURKA (human), sequence (O14965 whole entry, looked up): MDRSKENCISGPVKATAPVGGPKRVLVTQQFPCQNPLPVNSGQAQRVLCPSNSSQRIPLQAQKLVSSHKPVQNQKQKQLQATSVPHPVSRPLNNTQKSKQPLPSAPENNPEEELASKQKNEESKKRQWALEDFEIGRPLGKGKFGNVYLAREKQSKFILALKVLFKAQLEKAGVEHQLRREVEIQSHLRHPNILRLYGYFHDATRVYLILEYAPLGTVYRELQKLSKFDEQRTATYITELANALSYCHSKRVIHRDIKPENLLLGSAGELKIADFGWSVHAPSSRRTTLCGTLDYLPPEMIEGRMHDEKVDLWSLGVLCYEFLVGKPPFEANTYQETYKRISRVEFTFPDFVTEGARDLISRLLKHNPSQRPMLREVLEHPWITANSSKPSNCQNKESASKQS
KIT (human), sequence (P10721 whole entry, looked up): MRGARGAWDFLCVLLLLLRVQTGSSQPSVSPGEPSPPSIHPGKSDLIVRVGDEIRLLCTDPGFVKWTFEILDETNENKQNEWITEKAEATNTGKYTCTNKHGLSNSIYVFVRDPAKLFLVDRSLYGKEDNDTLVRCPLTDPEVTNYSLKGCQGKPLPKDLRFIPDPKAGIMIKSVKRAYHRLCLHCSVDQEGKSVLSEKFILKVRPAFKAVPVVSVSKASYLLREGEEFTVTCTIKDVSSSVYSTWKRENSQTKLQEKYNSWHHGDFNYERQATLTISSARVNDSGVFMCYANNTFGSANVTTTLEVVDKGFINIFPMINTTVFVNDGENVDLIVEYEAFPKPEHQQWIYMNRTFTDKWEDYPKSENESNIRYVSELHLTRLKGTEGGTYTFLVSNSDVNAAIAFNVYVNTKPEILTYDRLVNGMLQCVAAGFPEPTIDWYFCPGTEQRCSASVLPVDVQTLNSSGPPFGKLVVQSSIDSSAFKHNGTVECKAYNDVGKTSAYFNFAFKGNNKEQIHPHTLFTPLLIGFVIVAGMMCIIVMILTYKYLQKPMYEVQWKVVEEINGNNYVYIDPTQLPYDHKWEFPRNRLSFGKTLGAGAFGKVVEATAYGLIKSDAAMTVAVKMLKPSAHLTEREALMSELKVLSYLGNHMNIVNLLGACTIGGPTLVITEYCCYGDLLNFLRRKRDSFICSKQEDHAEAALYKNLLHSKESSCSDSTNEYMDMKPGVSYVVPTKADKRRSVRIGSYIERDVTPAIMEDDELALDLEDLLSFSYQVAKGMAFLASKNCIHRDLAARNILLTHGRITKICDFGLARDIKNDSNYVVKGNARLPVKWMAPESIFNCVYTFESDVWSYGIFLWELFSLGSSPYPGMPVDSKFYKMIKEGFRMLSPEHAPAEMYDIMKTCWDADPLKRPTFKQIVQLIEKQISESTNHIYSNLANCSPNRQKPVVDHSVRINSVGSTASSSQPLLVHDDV
EPHA8 (human), sequence (P29322 whole entry, looked up): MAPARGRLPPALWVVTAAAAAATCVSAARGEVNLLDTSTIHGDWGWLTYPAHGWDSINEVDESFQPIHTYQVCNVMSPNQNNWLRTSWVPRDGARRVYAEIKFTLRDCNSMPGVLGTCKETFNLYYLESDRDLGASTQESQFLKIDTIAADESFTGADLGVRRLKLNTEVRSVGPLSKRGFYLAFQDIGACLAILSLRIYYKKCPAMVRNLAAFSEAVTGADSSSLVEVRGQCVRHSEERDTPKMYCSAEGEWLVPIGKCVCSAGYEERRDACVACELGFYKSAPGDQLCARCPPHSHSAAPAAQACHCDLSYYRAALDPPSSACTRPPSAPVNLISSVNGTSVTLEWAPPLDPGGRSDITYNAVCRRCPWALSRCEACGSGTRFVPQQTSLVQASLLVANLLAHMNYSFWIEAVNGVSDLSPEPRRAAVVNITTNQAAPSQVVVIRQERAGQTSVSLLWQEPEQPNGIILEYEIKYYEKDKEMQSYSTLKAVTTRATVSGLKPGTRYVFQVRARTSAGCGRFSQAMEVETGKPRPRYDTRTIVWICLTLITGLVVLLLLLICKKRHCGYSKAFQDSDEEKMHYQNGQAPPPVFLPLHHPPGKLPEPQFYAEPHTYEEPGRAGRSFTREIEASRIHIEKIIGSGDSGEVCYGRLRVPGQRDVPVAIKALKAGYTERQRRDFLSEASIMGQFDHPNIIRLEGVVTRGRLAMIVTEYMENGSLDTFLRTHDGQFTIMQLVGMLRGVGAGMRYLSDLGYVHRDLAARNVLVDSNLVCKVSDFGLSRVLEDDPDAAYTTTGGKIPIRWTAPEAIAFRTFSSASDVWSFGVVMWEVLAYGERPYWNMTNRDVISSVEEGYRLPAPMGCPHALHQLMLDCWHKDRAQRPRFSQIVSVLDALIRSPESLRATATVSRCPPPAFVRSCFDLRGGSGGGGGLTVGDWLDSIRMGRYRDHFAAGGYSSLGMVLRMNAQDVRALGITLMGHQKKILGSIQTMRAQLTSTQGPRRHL

Cc1cc2ncc(-c3ccccc3)nc2cc1C
residual activity [1]: 94.4%
residual activity [2]: 92.5%
residual activity [3]: 98%
residual activity [4]: 105%
residual activity [5]: 81%
residual activity [6]: 92.6%
residual activity [7]: 99.7%
residual activity [8]: 100%
residual activity [9]: 96.5%
residual activity [10]: 99.9%
residual activity [11]: 102%
residual activity [12]: 95.9%
residual activity [13]: 88.2%
residual activity [14]: 63.5%
residual activity [15]: 98.3%
residual activity [16]: 97.3%
residual activity [17]: 92.1%
residual activity [18]: 99.2%
residual activity [19]: 94.5%
residual activity [20]: 85.2%
residual activity [21]: 102%
residual activity [22]: 99.1%
residual activity [23]: 98%
residual activity [24]: 99.1%
residual activity [25]: 103%
residual activity [26]: 102%
residual activity [27]: 81.4%
residual activity [28]: 98.6%
residual activity [29]: 94.9%
residual activity [30]: 91.9%
residual activity [31]: 105%
residual activity [32]: 96.9%
residual activity [33]: 96.8%
residual activity [34]: 105%
residual activity [35]: 96.2%
residual activity [36]: 104%
residual activity [37]: 95.1%
residual activity [38]: 103%
residual activity [39]: 90.1%
residual activity [40]: 101%
residual activity [41]: 95.4%
residual activity [42]: 103%

O=C1Cc2c([nH]c3ccc([N+](=O)[O-])cc23)-c2ccccc2N1
residual activity [1]: 54.5%
residual activity [2]: 88.1%
residual activity [3]: 92.6%
residual activity [4]: 107%
residual activity [5]: 113%
residual activity [6]: 97.2%
residual activity [7]: 92.1%
residual activity [8]: 100%
residual activity [9]: 94.2%
residual activity [10]: 94.8%
residual activity [11]: 91.6%
residual activity [12]: 72%
residual activity [13]: 63.4%
residual activity [14]: 83.7%
residual activity [15]: 89.2%
residual activity [16]: 103%
residual activity [17]: 96%
residual activity [18]: 89.7%
residual activity [19]: 104%
residual activity [20]: 98.2%
residual activity [21]: 42.3%
residual activity [22]: 87.8%
residual activity [23]: 83.3%
residual activity [24]: 50.3%
residual activity [25]: 99.7%
residual activity [26]: 94.3%
residual activity [27]: 83.1%
residual activity [28]: 52.3%
residual activity [29]: 99.3%
residual activity [30]: 88.6%
residual activity [31]: 93.9%
residual activity [32]: 92.5%
residual activity [33]: 7.9%
residual activity [34]: 94.5%
residual activity [35]: 80.4%
residual activity [36]: 97.2%
residual activity [37]: 39.7%
residual activity [38]: 92.7%
residual activity [39]: 98.8%
residual activity [40]: 102%
residual activity [41]: 98.9%
residual activity [42]: 54.6%

O=C(NC(NC(=S)Nc1ccc(F)c([N+](=O)[O-])c1)C(Cl)(Cl)Cl)C(c1ccccc1)c1ccccc1 (stereo not drawn)
residual activity [1]: 101%
residual activity [2]: 113%
residual activity [3]: 95.1%
residual activity [4]: 107%
residual activity [5]: 117%
residual activity [6]: 103%
residual activity [7]: 97.8%
residual activity [8]: 112%
residual activity [9]: 110%
residual activity [10]: 88.1%
residual activity [11]: 85.5%
residual activity [12]: 102%
residual activity [13]: 108%
residual activity [14]: 97.2%
residual activity [15]: 98.5%
residual activity [16]: 99.9%
residual activity [17]: 80.8%
residual activity [18]: 105%
residual activity [19]: 104%
residual activity [20]: 97.2%
residual activity [21]: 94.6%
residual activity [22]: 92.5%
residual activity [23]: 94%
residual activity [24]: 84.5%
residual activity [25]: 108%
residual activity [26]: 94.5%
residual activity [27]: 96.2%
residual activity [28]: 96.2%
residual activity [29]: 101%
residual activity [30]: 97.7%
residual activity [31]: 118%
residual activity [32]: 99.8%
residual activity [33]: 97.6%
residual activity [34]: 107%
residual activity [35]: 91.9%
residual activity [36]: 88.6%
residual activity [37]: 98.3%
residual activity [38]: 103%
residual activity [39]: 94.4%
residual activity [40]: 102%
residual activity [41]: 96.5%
residual activity [42]: 105%

Nc1nc(Nc2ccc(S(N)(=O)=O)cc2)nn1C(=S)Nc1c(F)cccc1F
residual activity [1]: -0.154%
residual activity [2]: 25.3%
residual activity [3]: 94.6%
residual activity [4]: 31.7%
residual activity [5]: 106%
residual activity [6]: 83%
residual activity [7]: 5.06%
residual activity [8]: 34.2%
residual activity [9]: 38.6%
residual activity [10]: 37.4%
residual activity [11]: 78.4%
residual activity [12]: 60.4%
residual activity [13]: 3.59%
residual activity [14]: 78.4%
residual activity [15]: 98.8%
residual activity [16]: 3.16%
residual activity [17]: 1.44%
residual activity [18]: 5.34%
residual activity [19]: 98.5%
residual activity [20]: 11.4%
residual activity [21]: 10.5%
residual activity [22]: 6.55%
residual activity [23]: 78.9%
residual activity [24]: 17.1%
residual activity [25]: 82.2%
residual activity [26]: -0.611%
residual activity [27]: 14.8%
residual activity [28]: 2.16%
residual activity [29]: 92.2%
residual activity [30]: 6.59%
residual activity [31]: 47.6%
residual activity [32]: 93%
residual activity [33]: 1.96%
residual activity [34]: 15.6%
residual activity [35]: 35.4%
residual activity [36]: 80.9%
residual activity [37]: 2.61%
residual activity [38]: 29.9%
residual activity [39]: 92.2%
residual activity [40]: 49.3%
residual activity [41]: 133%
residual activity [42]: 10.5%
